Results: article PMC12669040, “Tumour-specific STING agonist synthesis via a two-component prodrug system” (Nature Chemistry, 2025)
Values joined by “and” are separate entries in the source; they are usually repeats but may differ in a detail not shown here. Equal values may be shown once.

Tests used:
[1] = Colorimetric alkylation rate constant assay with TNB^2− as non-specific thiol; assay type: physicochemical; design: second-order: unit not given here; conditions: for remaining [B]: in µM
[2] = Colorimetric alkylation rate constant assay with thiol N1; assay type: physicochemical; conditions: for remaining [A]: N1 from calibration curve (N1 in uM); for remaining [A] / remaining [B]: in µM
[3] = Time 2891 sec, [B]0 = 250, Replicates 1-3
[4] = Time 3071 sec, [B]0 = 250, Replicates 1-3
[5] = Time 3252 sec, [B]0 = 250, Replicates 1-3
[6] = Time 3433 sec, [B]0 = 250, Replicates 1-3
[7] = Time 3613 sec, [B]0 = 250, Replicates 1-3

O=C(CCl)N1CCOCC1 [Compound C4]
remaining [B] ([1]; Replicate 1, 723 sec, [B]0 = 250): 243.209 | remaining [B] ([1]; Replicate 1, 903 sec, [B]0 = 250): 242.478 | remaining [B] ([1]; Replicate 1, 1084 sec, [B]0 = 250): 241.798 | remaining [B] ([1]; Replicate 1, 1265 sec, [B]0 = 250): 241.104 | remaining [B] ([1]; Replicate 1, 1445 sec, [B]0 = 250): 240.437 | remaining [B] ([1]; Replicate 1, 1626 sec, [B]0 = 250): 239.756 | remaining [B] ([1]; Replicate 1, 1806 sec, [B]0 = 250): 239.088 | remaining [B] ([1]; Replicate 1, 1988 sec, [B]0 = 250): 238.42 | remaining [B] ([1]; Replicate 1, 2168 sec, [B]0 = 250): 237.79 | remaining [B] ([1]; Replicate 1, 2349 sec, [B]0 = 250): 237.085 | remaining [B] ([1]; Replicate 1, 2530 sec, [B]0 = 250): 236.392 | remaining [B] ([1]; Replicate 1, 2710 sec, [B]0 = 250): 235.737 | remaining [B] ([1]; Replicate 2, 542 sec, [B]0=250): 242.118 | remaining [B] ([1]; Replicate 2, 723 sec, [B]0=250): 241.425 | remaining [B] ([1]; Replicate 2, 903 sec, [B]0=250): 240.732 | remaining [B] ([1]; Replicate 2, 1084 sec, [B]0=250): 240.077 | remaining [B] ([1]; Replicate 2, 1265 sec, [B]0=250): 239.371 | remaining [B] ([1]; Replicate 2, 1445 sec, [B]0=250): 238.754 | remaining [B] ([1]; Replicate 2, 1626 sec, [B]0=250): 238.023 | remaining [B] ([1]; Replicate 2, 1806 sec, [B]0=250): 237.355 | remaining [B] ([1]; Replicate 2, 1988 sec, [B]0=250): 236.687 | remaining [B] ([1]; Replicate 2, 2168 sec, [B]0=250): 236.019 | remaining [B] ([1]; Replicate 2, 2349 sec, [B]0=250): 235.377 | remaining [B] ([1]; Replicate 2, 2530 sec, [B]0=250): 234.722 | remaining [B] ([1]; Replicate 2, 2710 sec, [B]0=250): 234.041 | remaining [B] ([1]; Replicate 3, 723 sec, [B]0=250): 243.07 | remaining [B] ([1]; Replicate 3, 903 sec, [B]0=250): 242.352 | remaining [B] ([1]; Replicate 3, 1084 sec, [B]0=250): 241.558 | remaining [B] ([1]; Replicate 3, 1265 sec, [B]0=250): 240.878 | remaining [B] ([1]; Replicate 3, 1445 sec, [B]0=250): 240.248 | remaining [B] ([1]; Replicate 3, 1626 sec, [B]0=250): 239.542 | remaining [B] ([1]; Replicate 3, 1806 sec, [B]0=250): 238.786 | remaining [B] ([1]; Replicate 3, 1988 sec, [B]0=250): 238.244 | remaining [B] ([1]; Replicate 3, 2168 sec, [B]0=250): 237.513 | remaining [B] ([1]; Replicate 3, 2349 sec, [B]0=250): 236.921 | remaining [B] ([1]; Replicate 3, 2530 sec, [B]0=250): 236.215 | remaining [B] ([1]; Replicate 3, 2710 sec, [B]0=250): 235.51 | second-order [1, 3]: 0.0007509 and 0.0006764 and 0.0006669 | remaining [B] [1, 3]: 234.892 and 235.081 and 233.424 | second-order [1, 4]: 0.000786 and 0.0007119 and 0.0007036 | remaining [B] [1, 4]: 234.187 and 234.35 and 232.743 | second-order [1, 5]: 0.0008202 and 0.000746 and 0.0007357 | remaining [B] [1, 5]: 233.519 and 233.72 and 232.088 | second-order [1, 6]: 0.0008541 and 0.0007785 and 0.0007706 | remaining [B] [1, 6]: 232.889 and 233.04 and 231.445 | second-order [1, 7]: 0.0008877 and 0.0008119 and 0.0008054 | remaining [B] [1, 7]: 232.246 | second-order ([1]; Time 3794 sec, [B]0 = 250, Replicates 1-3): 0.0009231 and 0.0008424 and 0.0008418 | second-order ([1]; Time 3974 sec, [B]0 = 250, Replicates 1-3): 0.0009567 and 0.0008773 and 0.0008752 | second-order ([1]; Time 4155 sec, [B]0 = 250, Replicates 1-3): 0.00099 and 0.0009118 and 0.0009131 | second-order ([1]; Time 4336 sec, [B]0 = 250, Replicates 1-3): 0.001024 and 0.0009453 and 0.0009474 | second-order ([1]; Time 4516 sec, [B]0 = 250, Replicates 1-3): 0.00106 and 0.0009785 and 0.000984 | second-order ([1]; Time 4697 sec, [B]0 = 250, Replicates 1-3): 0.001096 and 0.001013 and 0.001019 | second-order ([1]; Time 4878 sec, [B]0 = 250, Replicates 1-3): 0.001128 and 0.001047 and 0.001054 | second-order ([1]; Time 5058 sec, [B]0 = 250, Replicates 1-3): 0.001163 and 0.00108 and 0.001089 | second-order ([1]; Time 5239 sec, [B]0 = 250, Replicates 1-3): 0.001202 and 0.001118 and 0.001125 | second-order ([1]; Time 5419 sec, [B]0 = 250, Replicates 1-3): 0.001235 and 0.001153 and 0.001158 | second-order ([1]; Time 5600 sec, [B]0 = 250, Replicates 1-3): 0.001269 and 0.001184 and 0.001195 | second-order ([1]; Time 5781 sec, [B]0 = 250, Replicates 1-3): 0.001306 and 0.001219 and 0.001231 | second-order ([1]; Time 5961 sec, [B]0 = 250, Replicates 1-3): 0.001339 and 0.001252 and 0.001269 | remaining [A] ([2]; Replicate 1, time 576 sec): 78.3846 | remaining [B] ([2]; Replicate 1, time 576 sec, [B]0 = 250): 224.265 | second-order ([2]; Replicate 1, time 576 sec, second-order plot value): 0.001202 | remaining [A] ([2]; Replicate 1, time 606 sec): 77.4156 | remaining [B] ([2]; Replicate 1, time 606 sec, [B]0 = 250): 223.296 | second-order ([2]; Replicate 1, time 606 sec, second-order plot value): 0.001257 | remaining [A] ([2]; Replicate 2, time 576 sec): 78.0283 | remaining [B] ([2]; Replicate 2, time 576 sec, [B]0=250): 224.887 | second-order ([2]; Replicate 2, time 576 sec, second-order plot value): 0.001179 | remaining [A] ([2]; Replicate 2, time 606 sec): 77.1496 | remaining [B] ([2]; Replicate 2, time 606 sec, [B]0=250): 224.008 | second-order ([2]; Replicate 2, time 606 sec, second-order plot value): 0.00123 | remaining [A] ([2]; Replicate 3, time 576 sec): 79.3863 | remaining [B] ([2]; Replicate 3, time 576 sec, [B]0=250): 224.839 | second-order ([2]; Replicate 3, time 576 sec, second-order plot value): 0.001164 | remaining [A] ([2]; Replicate 3, time 606 sec): 78.4394 | remaining [B] ([2]; Replicate 3, time 606 sec, [B]0=250): 223.892 | second-order ([2]; Replicate 3, time 606 sec, second-order plot value): 0.001217 | remaining [B] ([2]; time 0 sec, [B]0 = 250, replicates 1-3): 247.294 and 246.181 and 246.372 | second-order ([2]; time 0 sec, replicates 1-3): 0.0001443 and 0.0001055 and 0.0001506 | remaining [B] ([2]; time 30 sec, [B]0 = 250, replicates 1-3): 245.834 and 244.471 and 245.125 | second-order ([2]; time 30 sec, replicates 1-3): 0.0001956 and 0.0001641 and 0.0002207 | remaining [B] ([2]; time 60 sec, [B]0 = 250, replicates 1-3): 244.264 and 243.246 and 243.566 | second-order ([2]; time 60 sec, replicates 1-3): 0.0002611 and 0.0002284 and 0.000272 | remaining [B] ([2]; time 91 sec, [B]0 = 250, replicates 1-3): 243.074 and 241.878 and 242.29 | second-order ([2]; time 91 sec, replicates 1-3): 0.0003157 and 0.0002781 and 0.0003304 | remaining [B] ([2]; time 121 sec, [B]0 = 250, replicates 1-3): 241.802 and 240.652 and 241.043 | second-order ([2]; time 121 sec, replicates 1-3): 0.0003702 and 0.0003322 and 0.0003836 | remaining [B] ([2]; time 151 sec, [B]0 = 250, replicates 1-3): 240.639 and 239.37 and 239.711 | second-order ([2]; time 151 sec, replicates 1-3): 0.0004294 and 0.0003825 and 0.0004404 | remaining [B] ([2]; time 182 sec, [B]0 = 250, replicates 1-3): 239.367 and 238.23 and 238.549 | second-order ([2]; time 182 sec, replicates 1-3): 0.0004821 and 0.0004386 and 0.0004918 | remaining [B] ([2]; time 212 sec, [B]0 = 250, replicates 1-3): 238.15 and 237.033 and 237.472 | second-order ([2]; time 212 sec, replicates 1-3): 0.0005317 and 0.0004932 and 0.0005467 | remaining [B] ([2]; time 242 sec, [B]0 = 250, replicates 1-3): 236.878 and 235.893 and 236.139 | second-order ([2]; time 242 sec, replicates 1-3): 0.0005943 and 0.0005514 and 0.0005999 | remaining [B] ([2]; time 273 sec, [B]0 = 250, replicates 1-3): 235.688 and 234.696 and 235.147 | second-order ([2]; time 273 sec, replicates 1-3): 0.0006417 and 0.0006068 and 0.0006568 | remaining [B] ([2]; time 303 sec, [B]0 = 250, replicates 1-3): 234.525 and 233.67 and 234.042 | second-order ([2]; time 303 sec, replicates 1-3): 0.0006954 and 0.000662 and 0.0007064 | remaining [B] ([2]; time 333 sec, [B]0 = 250, replicates 1-3): 233.361 and 232.444 and 232.88 | second-order ([2]; time 333 sec, replicates 1-3): 0.0007529 and 0.0007182 and 0.0007667 | remaining [B] ([2]; time 364 sec, [B]0 = 250, replicates 1-3): 232.279 and 231.447 and 231.944 | second-order ([2]; time 364 sec, replicates 1-3): 0.0007999 and 0.0007714 and 0.0008167 | remaining [B] ([2]; time 394 sec, [B]0 = 250, replicates 1-3): 231.17 and 230.25 and 230.782 | second-order ([2]; time 394 sec, replicates 1-3): 0.0008594 and 0.0008269 and 0.0008777 | remaining [B] ([2]; time 424 sec, [B]0 = 250, replicates 1-3): 230.115 and 229.224 and 229.847 | second-order ([2]; time 424 sec, replicates 1-3): 0.000908 and 0.0008806 and 0.000931 | remaining [B] ([2]; time 454 sec, [B]0 = 250, replicates 1-3): 228.924 and 228.283 and 228.77 | second-order ([2]; time 454 sec, replicates 1-3): 0.000965 and 0.0009423 and 0.0009806 | remaining [B] ([2]; time 485 sec, [B]0 = 250, replicates 1-3): 227.977 and 227.229 and 227.834 | second-order ([2]; time 485 sec, replicates 1-3): 0.001015 and 0.0009923 and 0.001037 | remaining [B] ([2]; time 515 sec, [B]0 = 250, replicates 1-3): 226.922 and 226.203 and 226.814 | second-order ([2]; time 515 sec, replicates 1-3): 0.001071 and 0.001049 and 0.001093 | remaining [B] ([2]; time 545 sec, [B]0 = 250, replicates 1-3): 225.813 and 225.205 and 225.879 | second-order ([2]; time 545 sec, replicates 1-3): 0.001123 and 0.001109 and 0.001148
